Values after ≈ are worked out from the molar mass of the structure shown.
Experiments:
Escherichia coli [1] = experiment: Antimicrobial activity against TolC+ Escherichia coli 700 by CLSI method; type: functional
Escherichia coli [2] = experiment: Antimicrobial activity against TolC-deficient Escherichia coli by CLSI method; type: functional; conditions: Escherichia coli; read-out: MIC
Pseudomonas aeruginosa [3] = experiment: Antimicrobial activity against Pseudomonas aeruginosa PAO1 by CLSI method; type: functional
Klebsiella pneumoniae = experiment: Antimicrobial activity against Klebsiella pneumoniae 13882 by CLSI method; type: functional
Bacillus subtilis = experiment: Antimicrobial activity against Bacillus subtilis BD54 by CLSI method; type: functional
Staphylococcus aureus = experiment: Antimicrobial activity against methicillin-resistant Staphylococcus aureus 1094 by CLSI method; type: functional
Enterococcus faecalis = experiment: Antimicrobial activity against vancomycin-resistant Enterococcus faecalis ATCC 51575 by CLSI method; type: functional
Bacillus anthracis = experiment: Antimicrobial activity against Bacillus anthracis Sterne by CLSI method; type: functional
HeLa = experiment: (§1) Cytotoxicity against human HeLa cells by MTS assay; type: cell-based; conditions: hela
Pseudomonas aeruginosa [4] = experiment: Antimicrobial activity against mexAB-oprM deficient Pseudomonas aeruginosa PAO1 harboring by CLSI method; type: functional
[5] = as §1; type: cell-based; conditions: HeLa cells
[6] = Escherichia coli, 700, read-out: MIC
[7] = Pseudomonas aeruginosa, PAO1, read-out: MIC
[8] = Klebsiella pneumoniae, 13882, read-out: MIC
[9] = Bacillus subtilis, BD54, read-out: MIC
[10] = Staphylococcus aureus, 1094, read-out: MIC
[11] = Enterococcus faecalis, ATCC 51575, read-out: MIC
[12] = Bacillus anthracis, Sterne, read-out: MIC

SMILES | MIC (Escherichia coli [1]; [6]) [µg/mL] | MIC (Escherichia coli [2]) [µg/mL] | MIC (Pseudomonas aeruginosa [3]; [7]) [µg/mL] | MIC (Klebsiella pneumoniae; [8]) [µg/mL] | MIC (Bacillus subtilis; [9]) [µg/mL] | MIC (Staphylococcus aureus; [10]) [µg/mL] | MIC (Enterococcus faecalis; [11]) [µg/mL] | MIC (Bacillus anthracis; [12]) [µg/mL] | CC50 (HeLa) [µg/mL] | MIC (Pseudomonas aeruginosa [4]) [µg/mL] | CC50 [5] [µg/mL] | MIC (Escherichia coli [1]) [µg/mL] | MIC (Pseudomonas aeruginosa [3]) [µg/mL] | MIC (Klebsiella pneumoniae) [µg/mL] | MIC (Bacillus subtilis) [µg/mL] | MIC (Staphylococcus aureus) [µg/mL] | MIC (Enterococcus faecalis) [µg/mL] | MIC (Bacillus anthracis) [µg/mL]
c1cc2cc(-c3ccc(-c4cc5ccc(C6=NCCCN6)cc5o4)cn3)[nH]c2cc1C1=NCCCN1 | 1.25 (≈ 2.63 µM) | 0.16 (≈ 0.337 µM) | 1.25 (≈ 2.63 µM) | 1.56 (≈ 3.29 µM) | 0.08 (≈ 0.169 µM) | 0.31 (≈ 0.653 µM) | 0.39 (≈ 0.822 µM) | 0.16 (≈ 0.337 µM) | 15.6 (≈ 32.9 µM) | – | – | – | – | – | – | – | – | –
c1cc2cc(-c3ccc(-c4nc5ccc(C6=NCCN6)cc5[nH]4)cc3)[nH]c2cc1C1=NCCN1 | 10 (≈ 22.4 µM) | 0.31 (≈ 0.696 µM) | 20 (≈ 44.9 µM) | 20 (≈ 44.9 µM) | 0.16 (≈ 0.359 µM) | 1.25 (≈ 2.81 µM) | 0.63 (≈ 1.41 µM) | 5 (≈ 11.2 µM) | – | 40 (≈ 89.8 µM) | 8.6 (≈ 19.3 µM) | – | – | – | – | – | – | –
c1cc2cc(-c3ccc(-c4cc5ccc(C6=NCCN6)cc5o4)cc3)[nH]c2cc1C1=NCCN1 | 0.47 (≈ 1.05 µM) | 0.24 (≈ 0.539 µM) | 10 (≈ 22.4 µM) | 0.94 (≈ 2.11 µM) | 0.16 (≈ 0.359 µM) | 0.16 (≈ 0.359 µM) | 0.16 (≈ 0.359 µM) | 0.31 (≈ 0.696 µM) | – | 15 (≈ 33.7 µM) | 9.7 (≈ 21.8 µM) | – | – | – | – | – | – | –
c1cc2cc(-c3ccc(-c4cn5ccc(C6=NCCCN6)cc5n4)cc3)[nH]c2cc1C1=NCCCN1 | 2.5 (≈ 5.28 µM) | 0.31 (≈ 0.655 µM) | 40 (≈ 84.5 µM) | 5 (≈ 10.6 µM) | 0.16 (≈ 0.338 µM) | 2.5 (≈ 5.28 µM) | 1.25 (≈ 2.64 µM) | 1.25 (≈ 2.64 µM) | 20.9 (≈ 44.1 µM) | > 80 | – | – | – | – | – | – | – | –
c1cc2cc(-c3ccc(-c4cn5ccc(C6=NCCN6)cc5n4)cc3)[nH]c2cc1C1=NCCN1 | 2.5 (≈ 5.61 µM) | 0.31 (≈ 0.696 µM) | 40 (≈ 89.8 µM) | 5 (≈ 11.2 µM) | 2.5 (≈ 5.61 µM) | > 80 | > 80 | > 80 | – | > 80 | 2.5 (≈ 5.61 µM) | – | – | – | – | – | – | –
OC1CN=C(c2ccc3cc(-c4ccc(-c5cc6ccc(C7=NCC(O)CN7)cc6o5)cc4)[nH]c3c2)NC1 (centres undefined) | 2.5 (≈ 4.94 µM) | 0.16 (≈ 0.316 µM) | 6.3 (≈ 12.5 µM) | 1.09 (≈ 2.16 µM) | 0.08 (≈ 0.158 µM) | 0.31 (≈ 0.613 µM) | 0.31 (≈ 0.613 µM) | 0.55 (≈ 1.09 µM) | – | 15 (≈ 29.7 µM) | 11.9 (≈ 23.5 µM) | – | – | – | – | – | – | –
CC1CNC(c2ccc3cc(-c4ccc(-c5cc6ccc(C7=NC(C)CN7)cc6o5)cc4)[nH]c3c2)=N1 (stereo in doubt; P6b) | – | 0.63 (≈ 1.33 µM) | – | – | – | – | – | – | 7.6 (≈ 16 µM) | 80 (≈ 169 µM) | – | 1.09 (≈ 2.3 µM) | 80 (≈ 169 µM) | 5 (≈ 10.6 µM) | 0.35 (≈ 0.739 µM) | 0.55 (≈ 1.16 µM) | 0.63 (≈ 1.33 µM) | 0.63 (≈ 1.33 µM)
c1cc2cc(-c3ccc(-c4cn5cc(C6=NCCCN6)ccc5n4)cc3)[nH]c2cc1C1=NCCCN1 | 5 (≈ 10.6 µM) | 0.31 (≈ 0.655 µM) | 5 (≈ 10.6 µM) | 5 (≈ 10.6 µM) | 0.08 (≈ 0.169 µM) | 0.63 (≈ 1.33 µM) | 0.63 (≈ 1.33 µM) | 1.25 (≈ 2.64 µM) | 19.7 (≈ 41.6 µM) | 5 (≈ 10.6 µM) | – | – | – | – | – | – | – | –
c1cc2cc(-c3ccc(-c4cc5ccc(C6=NCCN6)cc5[nH]4)cc3)[nH]c2cc1C1=NCCN1 | 1.25 (≈ 2.81 µM) | 0.16 (≈ 0.36 µM) | 7.5 (≈ 16.9 µM) | 0.24 (≈ 0.54 µM) | 0.12 (≈ 0.27 µM) | 0.16 (≈ 0.36 µM) | 0.16 (≈ 0.36 µM) | 0.31 (≈ 0.697 µM) | 32.5 (≈ 73.1 µM) | 2.5 (≈ 5.62 µM) | – | – | – | – | – | – | – | –
FC1CN=C(c2ccc3cc(-c4ccc(-c5cc6ccc(C7=NCC(F)CN7)cc6o5)cc4)[nH]c3c2)NC1 (centres undefined) | 1.25 (≈ 2.45 µM) | 0.27 (≈ 0.53 µM) | 5 (≈ 9.81 µM) | 0.63 (≈ 1.24 µM) | 0.16 (≈ 0.314 µM) | 0.31 (≈ 0.608 µM) | 0.31 (≈ 0.608 µM) | 0.31 (≈ 0.608 µM) | – | 2.5 (≈ 4.91 µM) | 47.5 (≈ 93.2 µM) | – | – | – | – | – | – | –
c1cc2cc(-c3ccc(-c4cc5ccc(C6=NCCCN6)cc5s4)cc3)[nH]c2cc1C1=NCCCN1 | 0.63 (≈ 1.29 µM) | 0.31 (≈ 0.633 µM) | 10 (≈ 20.4 µM) | 1.25 (≈ 2.55 µM) | 0.1 (≈ 0.204 µM) | 0.31 (≈ 0.633 µM) | 0.31 (≈ 0.633 µM) | 0.16 (≈ 0.327 µM) | – | 10 (≈ 20.4 µM) | 5.9 (≈ 12 µM) | – | – | – | – | – | – | –
c1cc2cc(-c3ccc(-c4nc5ccc(C6=NCCCN6)cc5[nH]4)cc3)[nH]c2cc1C1=NCCCN1 | 2.5 (≈ 5.28 µM) | 0.31 (≈ 0.655 µM) | 2.5 (≈ 5.28 µM) | 5 (≈ 10.6 µM) | 0.08 (≈ 0.169 µM) | 0.31 (≈ 0.655 µM) | 0.31 (≈ 0.655 µM) | 0.31 (≈ 0.655 µM) | – | 2.5 (≈ 5.28 µM) | 27.6 (≈ 58.3 µM) | – | – | – | – | – | – | –
